Laboratory results from patent US9155302B2, “Active substance combinations” (priority 2005, dated 2015).

Experiments:
[1] = tested on: Alternaria mali; assay: Alternaria mali test (in vitro)/microtitre plates; assay type: cell-based; settings: 3 ppm, after 4 d
Description: The microtest is carried out in microtitre plates using potato dextrose broth PDB) as liquid test medium. The active compounds are applied as technical-grade a.i., dissolved in acetone. A spore suspension of Alternaria mali is used for inoculation. After 4 days of incubation in the dark and with shaking (10 Hz), the transparency in each filled cavity of the microtitre plates is determined with the aid of a spectrophotometer.
(§1) 0% means an efficacy which corresponds to the growth in the controls, whereas an efficacy of 100% means that no fungal growth is observed.

[2] = tested on: Myzus persicae; assay: Myzus persicae test, dipped cabbage leaves; assay type: in vivo; settings: 100 ppm, after 6 d
Description: The determined kill rates are calculated using Colby's formula (see sheet 1).

[3] = tested on: Phaedon cochleariae; assay: Phaedon cochleariae test, dipped cabbage leaves
[4] = tested on: Botrytis cinerea; assay: Botrytis cinerea test (in vitro)/microtitre plates; assay type: cell-based; settings: 3 ppm, after 5 d
Description: The microtest is carried out in microtitre plates using potato dextrose broth (PDB) as liquid test medium. The active compounds are applied as technical-grade a.i., dissolved in acetone. A spore suspension of Botrytis cinerea is used for inoculation. After 5 days of incubation in the dark and with shaking (10 Hz), the transparency in each filled cavity of the microtitre plates is determined with the aid of a spectrophotometer.
as §1

[5] = tested on: Plutella xylostella; assay: Plutella xylostella test, dipped cabbage leaves; assay type: in vivo; settings: after 6 d

Molecule: Cc1nn(C)c(F)c1C(=O)Nc1ccccc1C(C)CC(C)C (stereo not drawn) [(1-2), N-[2-(1,3-dimethylbutyl)phenyl]-5-fluoro-1,3-dimethyl-1H-pyrazole-4-carboxamide]
- Kill rate in % after d, found [1]: 48%
- Kill rate in % after d, found [2]: 0%
- Kill rate in % after d, found ([3]; 100 ppm, after 4 d): 0%
- Kill rate in % after d, found ([3]; 100 ppm, after 6 d): 0%
- Efficacy in % after d, found [4]: 16%

Molecule: CN/C(=N\[N+](=O)[O-])NCc1cnc(Cl)s1 [(2.1.1) clothianidin, clothianidin]
- Kill rate in % after d, found [1]: 8%
- Kill rate in % after d, found ([5]; 20 ppm): 20%
- Kill rate in % after d, found ([3]; 0.8 ppm, after 6 d): 0%

Molecule: O=[N+]([O-])NC1=NCCN1Cc1ccc(Cl)nc1 [(2.1.2) imidacloprid, imidacloprid]
- Kill rate in % after d, found ([5]; 4 ppm): 20%
- Kill rate in % after d, found ([3]; 0.8 ppm, after 6 d): 40%
- Efficacy in % after d, found [4]: 3%

Molecule: CNC(=O)Oc1cc(C)c(SC)c(C)c1 [(3.1.1) methiocarb, methiocarb]
- Kill rate in % after d, found [2]: 0%

Molecule: CS/C(C)=N\OC(=O)N(C)SN(C)C(=O)O/N=C(\C)SC [(3.1.2) thiodicarb, thiodicarb]
- Kill rate in % after d, found ([3]; 100 ppm, after 4 d): 0%

Molecule: N#Cc1nn(-c2c(Cl)cc(C(F)(F)F)cc2Cl)c(N)c1[S+]([O-])C(F)(F)F (stereo not drawn) [(6.2.1) fipronil, fipronil]
- Kill rate in % after d, found [2]: 65%

Molecule: spinosad [(5.1.1) spinosad]
- Kill rate in % after d, found ([3]; 0.8 ppm, after 6 d): 80%
